Measurements: patent publication US20200101068A1, “Heteroaryl Derivatives as PARP Inhibitors” (Lupin Limited, priority 2015, published 2020)
pIC50: −log10 of the molar value.

Target: T1, PARP1 (Homo sapiens, UniProt P09874)
T1 construct: purchased BPS Bioscience
Test: PARP1 biochemical assay (BPS Bioscience kit, chemiluminescent)
Conditions: histone-coated plate, biotinylated NAD+, 60 min at 25° C., luminescence; read-out: PARP 1 inhibition IC50
Protocol: Example 16: PARP1 Biochemical Assay
The assay was performed using BPS Bioscience kit. The 96-well strip plate was coated with 50 μl of histone mixture and incubated at 4° C. overnight. The next day, the wells were blocked by adding 100 μl of blocking buffer. The plate was washed and 25 μl of appropriate concentration of PARP1 (25-75 ng/well) was added in all of the Test and Positive control wells. In the Negative control wells, the enzyme was replaced with 25 μl of water. 5 μl each of 10× PARP assay buffer and activated DNA was added in all the wells (Test, Positive and Negative control wells). 10× concentration of the test compounds were prepared and 5 μl test compounds were added to the respective wells. The reaction volume was made up to 45 μl by adding water to all of the wells. 5 μl of 10× PARP assay mixture containing biotinilated NAD^+ was added in each well and the plate was incubated at ambient temperature (25° C.) for 60 min. After washing the plate 50 μl of Streptavidin-HRP was added in each well, the plate was incubated at RT for 30 min. The plate was washed and the luminescence was read in PHERAStar plate reader after adding 100 μl of chemiluminescent substrate.
PARP inhibition was calculated using the following formula:
% PARP inhibition=100−[(RLU test compound treated sample−RLU negative control)/(RLU Positive control−RLU negative control)×100]
IC50 values were calculated by plotting % inhibition against the respective concentrations of test compounds using GraphPad Prism 5.

T1 sequence (P09874 whole entry): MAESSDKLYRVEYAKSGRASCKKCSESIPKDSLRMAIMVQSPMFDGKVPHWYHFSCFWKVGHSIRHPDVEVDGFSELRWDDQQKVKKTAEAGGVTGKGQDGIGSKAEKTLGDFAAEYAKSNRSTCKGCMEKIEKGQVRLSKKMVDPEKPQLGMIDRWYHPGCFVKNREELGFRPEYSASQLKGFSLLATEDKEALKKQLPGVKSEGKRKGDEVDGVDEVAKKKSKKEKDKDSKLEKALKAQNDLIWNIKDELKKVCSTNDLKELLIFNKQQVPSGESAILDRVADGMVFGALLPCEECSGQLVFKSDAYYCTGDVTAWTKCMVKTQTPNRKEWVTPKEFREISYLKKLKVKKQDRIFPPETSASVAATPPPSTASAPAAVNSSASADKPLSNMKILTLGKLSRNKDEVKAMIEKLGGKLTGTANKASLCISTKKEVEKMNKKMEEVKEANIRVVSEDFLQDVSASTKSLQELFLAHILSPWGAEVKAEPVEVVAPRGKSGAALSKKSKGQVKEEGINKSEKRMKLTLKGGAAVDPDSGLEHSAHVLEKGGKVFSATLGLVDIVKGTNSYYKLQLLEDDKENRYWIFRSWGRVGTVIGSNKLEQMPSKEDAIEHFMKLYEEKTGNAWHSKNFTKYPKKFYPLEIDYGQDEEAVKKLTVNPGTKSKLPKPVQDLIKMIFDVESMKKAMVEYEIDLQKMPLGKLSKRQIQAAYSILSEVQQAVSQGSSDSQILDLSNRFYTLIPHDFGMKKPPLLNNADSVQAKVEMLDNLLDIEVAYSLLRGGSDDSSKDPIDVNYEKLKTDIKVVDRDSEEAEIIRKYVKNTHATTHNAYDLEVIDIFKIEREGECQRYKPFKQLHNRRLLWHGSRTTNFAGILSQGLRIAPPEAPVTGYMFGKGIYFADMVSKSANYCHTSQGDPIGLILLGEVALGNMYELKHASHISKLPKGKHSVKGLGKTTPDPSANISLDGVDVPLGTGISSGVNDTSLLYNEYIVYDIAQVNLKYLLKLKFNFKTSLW

Compound | pIC50
C[C@@H]1CN(c2ccc(C#N)cc2)CCN1[C@@H]1C=C(c2cc3ncccc3c(=O)[nH]2)CC1 (racemic) [Compound 15, 4-((R)-3-methyl-4-((S/R)-3-(5-oxo-5,6-dihydro-1,6-naphthyridin-7-yl)cyclopent-2-en-1-yl)piperazin-1-yl)benzonitrile] | 7.30 to 8.29
N#Cc1ccc(N2CCN([C@@H]3CC[C@H](c4cc5ncccc5c(=O)[nH]4)C3)CC2)cc1 (single isomer, unassigned) [Compound 11] | 8.30 to 9.30
N#Cc1ccc(N2CCN([C@@H]3CC[C@@H](c4cc5ncccc5c(=O)[nH]4)C3)CC2)cc1 (single isomer, unassigned) [Compound 12] | 7.30 to 8.29
C[C@@H]1CN(c2ccc(C#N)cc2)CCN1C1C=C(c2cc3ncccc3c(=O)[nH]2)CC1 (single isomer, unassigned) [Compound 14] | 8.30 to 9.30
N#Cc1ccc(N2C[C@@H]3C[C@H]2CN3C2C=C(c3cc4ncccc4c(=O)[nH]3)CC2)cc1 (single isomer, unassigned) [Compound 16] | 7.30 to 8.29
Cc1ccc2c(=O)[nH]c(C3=C[C@H](N4CCN(c5ccc(C#N)cc5)CC4)CC3)cc2n1 [Compound 6, (R)-4-(4-(3-(2-methyl-5-oxo-5,6-dihydro-1,6-naphthyridin-7-yl)cyclopent-2-en-1-yl)piperazin-1-yl)benzonitrile] | 8.30 to 9.30
N#Cc1ccc(N2CCN([C@H]3C=C(c4[nH]c(=O)c5cccnc5c4[N+](=O)[O-])CC3)CC2)cc1 [Compound 8, (R)-4-(4-(3-(8-nitro-5-oxo-5,6-dihydro-1,6-naphthyridin-7-yl)cyclopent-2-en-1-yl)piperazin-1-yl)benzonitrile] | 8.30 to 9.30
Cc1c(C2=C[C@H](N3CCN(c4ccc(C#N)cc4)CC3)CC2)[nH]c(=O)c2cccnc12 [Compound 9, (R)-4-(4-(3-(8-methyl-5-oxo-5,6-dihydro-1,6-naphthyridin-7-yl)cyclopent-2-en-1-yl)piperazin-1-yl)benzonitrile] | 8.30 to 9.30
Cc1c(C2=C[C@@H](N3CCN(c4ccc(C#N)cc4)CC3)CC2)[nH]c(=O)c2cccnc12 [Compound 10, (S)-4-(4-(3-(8-methyl-5-oxo-5,6-dihydro-1,6-naphthyridin-7-yl)cyclopent-2-en-1-yl)piperazin-1-yl)benzonitrile] | 8.30 to 9.30
N#Cc1ccc(N2CCN([C@H]3C=C(c4cc5ncccc5c(=O)[nH]4)CC3)CC2=O)cc1 [Compound 13, (R)-4-(2-oxo-4-(3-(5-oxo-5,6-dihydro-1,6-naphthyridin-7-yl)cyclopent-2-en-1-yl)piperazin-1-yl)benzonitrile] | 7.30 to 8.29
CNC(=O)c1ccc(N2CCN([C@H]3C=C(c4cc5ncccc5c(=O)[nH]4)CC3)CC2)cc1 [Compound 18, (R)—N-methyl-4-(4-(3-(5-oxo-5,6-dihydro-1,6-naphthyridin-7-yl)cyclopent-2-en-1-yl)piperazin-1-yl)benzamide] | 8.30 to 9.30
CCOC(=O)c1ccc(N2CCN([C@H]3C=C(c4cc5ncccc5c(=O)[nH]4)CC3)CC2)cc1 [Compound 20, Ethyl (R)-4-(4-(3-(5-oxo-5,6-dihydro-1,6-naphthyridin-7-yl)cyclopent-2-en-1-yl)piperazin-1-yl)benzoate] | 8.30 to 9.30

Next, values leading:

pIC50 | Compound
8.30 to 9.30 | N#Cc1ccc(N2CCN([C@H]3C=C(c4cc5ncccc5c(=O)[nH]4)CC3)CC2)cc1 [Compound 1, (R)-4-(4-(3-(5-oxo-5,6-dihydro-1,6-naphthyridin-7-yl)cyclopent-2-en-1-yl)piperazin-1-yl)benzonitrile]
8.30 to 9.30 | N#Cc1ccc(N2CCN([C@H]3C=C(c4cc5ncc(F)cc5c(=O)[nH]4)CC3)CC2)cc1 [Compound 2, (R)-4-(4-(3-(3-fluoro-5-oxo-5,6-dihydro-1,6-naphthyridin-7-yl)cyclopent-2-en-1-yl)piperazin-1-yl)benzonitrile]
8.30 to 9.30 | Cc1ccccc1N1CCN([C@H]2C=C(c3cc4ncccc4c(=O)[nH]3)CC2)CC1 [Compound 3, (R)-7-(3-(4-(o-tolyl)piperazin-1-yl)cyclopent-1-en-1-yl)-1,6-naphthyridin-5(6H)-one]
7.30 to 8.29 | N#Cc1ccc(N2CCN([C@@H]3C=C(c4cc5ncccc5c(=O)[nH]4)CC3)CC2)cc1 [Compound 4, (S)-4-(4-(3-(5-oxo-5,6-dihydro-1,6-naphthyridin-7-yl)cyclopent-2-en-1-yl)piperazin-1-yl)benzonitrile]
8.30 to 9.30 | N#Cc1ccc(N2CCN([C@H]3C=C(c4cc5ncc(N)cc5c(=O)[nH]4)CC3)CC2)cc1 [Compound 7, (R)-4-(4-(3-(3-amino-5-oxo-5,6-dihydro-1,6-naphthyridin-7-yl)cyclopent-2-en-1-yl)piperazin-1-yl)benzonitrile]
8.30 to 9.30 | NC(=O)c1ccc(N2CCN([C@H]3C=C(c4cc5ncccc5c(=O)[nH]4)CC3)CC2)cc1 [Compound 19, (R)-4-(4-(3-(5-oxo-5,6-dihydro-1,6-naphthyridin-7-yl)cyclopent-2-en-1-yl)piperazin-1-yl)benzamide]
8.30 to 9.30 | O=c1[nH]c(C2=C[C@H](N3CCN(c4ccccc4)CC3)CC2)cc2ncccc12 [Compound 21, (R)-7-(3-(4-phenylpiperazin-1-yl)cyclopent-1-en-1-yl)-1,6-naphthyridin-5(6H)-one]
8.30 to 9.30 | O=c1[nH]c(C2=C[C@H](N3CCN(c4ccc(F)cc4)CC3)CC2)cc2ncccc12 [Compound 22, (R)-7-(3-(4-(4-fluorophenyl)piperazin-1-yl)cyclopent-1-en-1-yl)-1,6-naphthyridin-5(6H)-one]
8.30 to 9.30 | N#Cc1ccc(N2CCN([C@H]3C=C(c4cc5ncccc5c(=O)[nH]4)CC3)CC2)c(F)c1 [Compound 23, (R)-3-fluoro-4-(4-(3-(5-oxo-5,6-dihydro-1,6-naphthyridin-7-yl)cyclopent-2-en-1-yl)piperazin-1-yl)benzonitrile]
8.30 to 9.30 | O=c1[nH]c(C2=C[C@H](N3CCN(c4ccc(Cl)cc4)CC3)CC2)cc2ncccc12 [Compound 24, (R)-7-(3-(4-(4-chlorophenyl)piperazin-1-yl)cyclopent-1-en-1-yl)-1,6-naphthyridin-5(6H)-one]
8.30 to 9.30 | COc1ccc(N2CCN([C@H]3C=C(c4cc5ncccc5c(=O)[nH]4)CC3)CC2)cc1 [Compound 25, (R)-7-(3-(4-(4-methoxyphenyl)piperazin-1-yl)cyclopent-1-en-1-yl)-1,6-naphthyridin-5(6H)-one]
8.30 to 9.30 | Cc1ccc(N2CCN([C@H]3C=C(c4cc5ncccc5c(=O)[nH]4)CC3)CC2)cc1 [Compound 26, (R)-7-(3-(4-(p-tolyl)piperazin-1-yl)cyclopent-1-en-1-yl)-1,6-naphthyridin-5(6H)-one]
7.30 to 8.29 | CNc1ccc(N2CCN([C@H]3C=C(c4cc5ncccc5c(=O)[nH]4)CC3)CC2)cc1 [Compound 27, (R)-7-(3-(4-(4-(methylamino)phenyl)piperazin-1-yl)cyclopent-1-en-1-yl)-1,6-naphthyridin-5(6H)-one]
8.30 to 9.30 | CC(=O)c1ccc(N2CCN([C@H]3C=C(c4cc5ncccc5c(=O)[nH]4)CC3)CC2)cc1 [Compound 28, (R)-7-(3-(4-(4-acetylphenyl)piperazin-1-yl)cyclopent-1-en-1-yl)-1,6-naphthyridin-5(6H)-one]
8.30 to 9.30 | O=C1CCc2cc(N3CCN([C@H]4C=C(c5cc6ncccc6c(=O)[nH]5)CC4)CC3)ccc21 [Compound 29, (R)-7-(3-(4-(1-oxo-2,3-dihydro-1H-inden-5-yl)piperazin-1-yl)cyclopent-1-en-1-yl)-1,6-naphthyridin-5(6H)-one]
